We go through ten compounds from ChEMBL document CHEMBL1201862, “PubChem BioAssay data set” (2004).

One test has as its target Genome polyprotein (Hepatitis C virus, UniProt Q2Q167). The test can be described thus: HCV core protein dimerization inhibitors, dose response, biochemical, TR-FRET (AID 2159).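 Further: blocks dimerization of HCV core protein measured by TR-FRET between tagged core106 pairs.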 Also noted: species or system Hepacivirus hominis.
The target in test [1] is Aryl hydrocarbon receptor (Homo sapiens, UniProt P35869). The test can be described thus: Luminescence-based cell-based high throughput dose response assay for activators of the Aryl Hydrocarbon Receptor (AHR). [Related pubchem assays: 2796 (Primary screen (AHR activators in singlicate)), 2845 (Confirmation screen (AHR activators in triplicate)), 434939 (Counterscreen (PXR activators in triplicate)), 2804 (Summary (AHR activators))]. The format is ADME.

In a further test the test system is INS1. The test can be described thus: beta cell apoptosis inhibitors, cytokine rescue, dose response, luminescence, retest (AID 449756).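 Further: cell death triggered by IL-1 beta plus TNF-alpha plus IFN-gamma mixture; protective hits raise ATP signal compared with cytokine alone wells.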 In kind it is functional, cell-based. As to conditions: Rattus norvegicus, INS1.
In test [2] the target is Induced myeloid leukemia cell differentiation protein Mcl-1 (Homo sapiens, UniProt Q07820). In kind it is functional.
Test [3] concerns the target Serine/threonine-protein phosphatase PP1-alpha catalytic subunit (Homo sapiens, UniProt P62136). Briefly: PP1 phosphatase inhibitors, dose response, biochemical, fluorescence (AID 2394).
The target in test [4] is Mitochondrial peptide methionine sulfoxide reductase (Bos taurus, UniProt P54149). The test can be described thus: Absorbance-based biochemical high throughput dose response assay for activators of Methionine sulfoxide reductase A (MsrA). In kind it is functional.
Test [5] has as its target Serine/threonine-protein phosphatase (Homo sapiens, UniProt Q9BPW0). Briefly: PP5 phosphatase inhibitors, dose response, biochemical, fluorescence (AID 2395).
For a further test, the target named is NADPH oxidase 1 (Homo sapiens, UniProt Q9Y5S8). Briefly: Late-stage luminescence-based cell-based dose response assay to identify inhibitors of NADPH oxidase 1 (NOX1): Purchased analogs 2. In kind it is functional.
Test [6] is described as follows: HepG2 cell cytotoxicity, dose response, cytotoxicity control for Shn3 inhibitor project, CellTiter-Glo, cherry-picked (AID 624134). In kind it is functional, cell-based.
Test [7] in a line: Shn3 3'UTR reporter inhibitors, dose response, cell-based, Clone20 osteoblasts, firefly luciferase, cherry-picked (AID 624132).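 Further: firefly luciferase luminescence from reporter carrying the Shn3 3'UTR in osteoblasts.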 In kind it is functional.
Test [8] can be described thus: control 3'UTR Renilla luciferase suppression, dose response, counter-screen for Shn3 inhibitor project, cell-based, Clone20-Shn3RL, cherry-picked (AID 624133). In kind it is functional. In general terms: A counterscreen serves to expose hits that act by an unwanted route or on another target.
Test [9] can be described thus: Luminescence Cell-Based Dose Confirmation HTS to Identify Inhibitors of Polyadenylation. In kind it is functional.
The target in test [10] is Sphingosine 1-phosphate receptor 1 (Homo sapiens, UniProt P21453). The test can be described thus: Dose Response Cell-Based Assay for Agonists of the Sphingosine 1-Phosphate Receptor 1 (S1P1): Purchased Analogues. [Related pubchem assays: 1192, 373, 439 ]. In kind it is functional.
The target in test [11] is T1, Sphingosine 1-phosphate receptor 3 (Homo sapiens, UniProt Q99500). Briefly: Dose Response Cell-Based Assay for Agonists of the Sphingosine 1-Phosphate Receptor 3 (S1P3): Purchased Analogues. [Related pubchem assays: 373, 439 ]. In kind it is functional.
The target in test [12] is Sphingosine 1-phosphate receptor 2 (Homo sapiens, UniProt O95136). Briefly: Dose Response Cell-Based Assay for Agonists of the Sphingosine 1-Phosphate Receptor 2 (S1P2): Purchased Analogues. [Related pubchem assays: 1192, 373, 439 ]. The format is functional.
Test [13] concerns the target T2, Apoptotic protease-activating factor 1 (Homo sapiens, UniProt O14727).
T2 sequence (O14727 whole entry): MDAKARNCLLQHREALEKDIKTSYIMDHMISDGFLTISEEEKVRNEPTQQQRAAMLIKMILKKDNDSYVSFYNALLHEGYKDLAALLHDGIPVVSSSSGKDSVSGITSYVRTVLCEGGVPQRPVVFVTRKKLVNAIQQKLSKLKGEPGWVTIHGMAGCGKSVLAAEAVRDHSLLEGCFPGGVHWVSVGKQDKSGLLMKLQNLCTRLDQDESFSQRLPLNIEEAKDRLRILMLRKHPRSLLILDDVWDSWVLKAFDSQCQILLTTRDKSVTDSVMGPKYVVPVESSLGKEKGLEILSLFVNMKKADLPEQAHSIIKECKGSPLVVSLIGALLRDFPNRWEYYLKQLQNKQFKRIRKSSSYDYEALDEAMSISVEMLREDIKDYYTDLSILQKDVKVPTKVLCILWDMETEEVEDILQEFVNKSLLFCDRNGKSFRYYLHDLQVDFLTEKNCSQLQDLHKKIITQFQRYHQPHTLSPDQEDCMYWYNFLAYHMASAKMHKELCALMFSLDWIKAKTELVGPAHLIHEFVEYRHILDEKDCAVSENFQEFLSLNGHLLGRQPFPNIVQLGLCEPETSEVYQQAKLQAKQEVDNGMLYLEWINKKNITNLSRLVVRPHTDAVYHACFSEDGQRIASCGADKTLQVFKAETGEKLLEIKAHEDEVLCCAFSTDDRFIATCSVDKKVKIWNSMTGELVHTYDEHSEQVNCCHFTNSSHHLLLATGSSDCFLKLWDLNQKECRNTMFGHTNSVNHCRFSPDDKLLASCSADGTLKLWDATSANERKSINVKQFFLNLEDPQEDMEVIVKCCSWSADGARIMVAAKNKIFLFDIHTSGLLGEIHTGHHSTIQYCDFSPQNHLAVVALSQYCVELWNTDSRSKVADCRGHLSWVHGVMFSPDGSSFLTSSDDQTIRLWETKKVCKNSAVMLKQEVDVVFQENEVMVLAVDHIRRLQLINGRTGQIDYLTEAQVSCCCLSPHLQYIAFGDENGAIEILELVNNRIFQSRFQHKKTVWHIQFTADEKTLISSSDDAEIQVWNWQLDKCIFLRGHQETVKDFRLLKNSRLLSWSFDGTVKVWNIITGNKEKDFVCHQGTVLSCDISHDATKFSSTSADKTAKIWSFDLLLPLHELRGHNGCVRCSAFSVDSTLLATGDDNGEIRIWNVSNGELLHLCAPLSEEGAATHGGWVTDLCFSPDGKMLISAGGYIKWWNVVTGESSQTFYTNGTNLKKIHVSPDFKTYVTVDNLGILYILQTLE
In kind it is functional.

The target in test [14] is T3, Ubiquitin-conjugating enzyme E2 N (Homo sapiens, UniProt P61088).
T3 sequence (P61088 whole entry): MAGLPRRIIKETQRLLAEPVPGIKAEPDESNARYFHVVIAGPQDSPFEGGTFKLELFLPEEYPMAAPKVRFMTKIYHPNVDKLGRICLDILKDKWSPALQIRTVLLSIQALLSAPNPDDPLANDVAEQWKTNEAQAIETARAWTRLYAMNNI
In kind it is functional.

The next test has as its target Vasopressin V1a receptor (Homo sapiens, UniProt P37288). Briefly: Fluorescence-based cell-based high throughput dose response screening assay for agonists of the vasopressin 1 receptor (V1R). The format is functional.
For another test, the target named is T4, Bcl-2-related protein A1 (Mus musculus, UniProt Q07440).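 Further: confirmatory dose–response counterscreen on Bfl-1, used to check hits from a UBC13 polyubiquitin inhibitor campaign.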
T4 sequence (Q07440 whole entry): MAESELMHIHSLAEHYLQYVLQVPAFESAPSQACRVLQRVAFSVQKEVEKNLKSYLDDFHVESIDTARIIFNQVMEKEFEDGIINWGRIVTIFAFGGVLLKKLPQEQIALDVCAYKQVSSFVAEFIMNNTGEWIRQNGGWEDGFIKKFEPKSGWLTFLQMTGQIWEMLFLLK
The format is functional.

The target of test [15] is T3, Ubiquitin-conjugating enzyme E2 N. The format is functional. This is another data set of the same source.
The target of a further test is Oxytocin receptor (Homo sapiens, UniProt P30559). The test can be described thus: Counterscreen for vasopressin 1 receptor (V1R) agonists: Fluorescence-based cell-based high throughput dose response assay for agonists of the Oxytocin Receptor (OXTR). [Related pubchem assays: 2435 (Primary screen (OXTR agonists in singlicate)), 434964 (Confirmation screen (V1R agonists in triplicate)), 434969 (Counterscreen (OXTR agonists in …. The format is functional.

Test [16] has as its target 5-hydroxytryptamine receptor 1E (Homo sapiens, UniProt P28566). The test can be described thus: Counterscreen assay for S1P3 antagonists: Dose response cell-based high throughput screening assay to identify antagonists of the 5-Hydroxytryptamine Receptor Subtype 1E (5HT1E). [Related pubchem assays: 1429, 485 ]. The format is functional.
Test [17] in a line: cytotoxicity toward NIH3T3 fibroblasts, dose response, counter-screen, cell-based, ATP luminescence, mouse fibroblasts (AID 2010).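 Further: cells exposed to compound for about 90 hours before reading.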 In kind it is functional.
Test [18] can be described thus: inhibitors of intracellular T. cruzi replication, confirmation, NIH3T3 host cells, beta-gal luminescence (AID 2044).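 Further: intracellular parasites grown in NIH/3T3 mouse fibroblasts as host cells; luminescent beta-galactosidase reporter signal from transgenic T. cruzi replicating inside host cells; inhibitors lower the luminescence signal.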 In kind it is functional, cell-based.
The target of test [19] is T1, Sphingosine 1-phosphate receptor 3. The test can be described thus: Dose response cell-based high throughput screening assay for antagonists of the Sphingosine 1-Phosphate Receptor 3 (S1P3). [Related pubchem assays: 1429, 485 ]. In kind it is functional.
The subject of test [20] is Streptococcus sp. 'group A'. The test can be described thus: growth inhibition of control SK(-) GAS strain, dose response, counter-screen for streptokinase expression inhibitor project, luminescence, kanamycin, BacTiterGlo, confirmation (AID 1900). The format is functional, organism-based.
Test [21] deals with Voltage-gated inwardly rectifying potassium channel KCNH2 (Homo sapiens, UniProt Q12809). Briefly: hERG protection from proarrhythmic block, potency, dose response, cell-based, thallium flux (AID 2121). The format is ADME. (In general: The hERG channel carries a current that helps repolarise heart muscle cells.)
A further test deals with T5, Streptokinase A (Streptococcus pyogenes serotype M1, UniProt P10520).
T5 sequence (P10520 whole entry): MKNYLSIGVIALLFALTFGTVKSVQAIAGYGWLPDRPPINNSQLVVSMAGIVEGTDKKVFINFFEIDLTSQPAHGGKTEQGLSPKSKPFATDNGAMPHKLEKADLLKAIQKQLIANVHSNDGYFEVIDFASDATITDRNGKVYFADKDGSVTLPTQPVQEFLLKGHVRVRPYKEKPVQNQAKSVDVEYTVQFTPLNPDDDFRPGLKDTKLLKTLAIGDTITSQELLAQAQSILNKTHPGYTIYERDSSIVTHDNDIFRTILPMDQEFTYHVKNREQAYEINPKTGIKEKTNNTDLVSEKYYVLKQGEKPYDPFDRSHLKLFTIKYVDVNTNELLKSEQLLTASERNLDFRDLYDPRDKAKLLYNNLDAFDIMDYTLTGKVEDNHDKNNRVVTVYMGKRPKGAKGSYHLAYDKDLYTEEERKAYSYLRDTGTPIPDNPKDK
The test can be described thus: S. pyogenes streptokinase expression inhibitors, potency, dose response, plasminogen activation absorbance, OD405 (AID 1914).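 Further: secreted streptokinase activity via plasminogen activation per viability signal from cell pellet.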 In kind it is functional, Streptococcus pyogenes M1 GAS.

Another test concerns Streptococcus. The test can be described thus: Group A Streptococcus viability loss, dose response, counter-screen for streptokinase expression inhibitor project, luminescence, BacTiterGlo (AID 1915).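 Further: potency for reduction of bacterial viability or growth.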 The format is functional, organism-based.
In test [22] the target is E3 ubiquitin-protein ligase Mdm2 (Homo sapiens, UniProt Q00987). Briefly: enhancers of MDM2-luciferase reporter signal, concentration-effect titration, project on inhibitors of MDM2 ubiquitin ligase, cellular assay, luminescent readout, 384-well plate format (AID 1394).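 Further: MDM2 E3 inhibitors raise luminescence so EC50 is for signal enhancement.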 The format is functional. (In general: Reporter assays use an easily measured gene product as a stand-in for the process of interest.)

The source made the active and inactive calls.

T1 sequence (Q99500 whole entry): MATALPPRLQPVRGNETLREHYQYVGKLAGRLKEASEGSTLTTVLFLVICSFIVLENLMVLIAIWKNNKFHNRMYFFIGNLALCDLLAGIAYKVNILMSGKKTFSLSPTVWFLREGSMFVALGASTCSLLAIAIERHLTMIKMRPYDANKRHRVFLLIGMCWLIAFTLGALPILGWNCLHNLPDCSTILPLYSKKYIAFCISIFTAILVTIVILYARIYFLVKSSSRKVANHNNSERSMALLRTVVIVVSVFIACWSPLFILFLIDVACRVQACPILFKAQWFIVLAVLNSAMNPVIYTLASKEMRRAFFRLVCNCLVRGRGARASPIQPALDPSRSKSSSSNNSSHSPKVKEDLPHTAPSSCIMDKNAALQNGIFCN
Sequence of Induced myeloid leukemia cell differentiation protein Mcl-1 (Q07820 whole entry): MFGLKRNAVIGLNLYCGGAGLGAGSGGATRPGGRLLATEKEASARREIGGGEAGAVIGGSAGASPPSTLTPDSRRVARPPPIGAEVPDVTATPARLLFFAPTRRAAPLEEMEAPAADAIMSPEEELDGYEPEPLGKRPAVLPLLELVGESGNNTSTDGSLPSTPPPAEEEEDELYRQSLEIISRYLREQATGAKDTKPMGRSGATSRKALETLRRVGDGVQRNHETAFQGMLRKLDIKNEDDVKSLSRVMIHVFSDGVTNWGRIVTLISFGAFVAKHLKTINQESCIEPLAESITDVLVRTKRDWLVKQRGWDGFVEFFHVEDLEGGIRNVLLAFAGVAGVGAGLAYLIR
Sequence of Voltage-gated inwardly rectifying potassium channel KCNH2 (Q12809 whole entry): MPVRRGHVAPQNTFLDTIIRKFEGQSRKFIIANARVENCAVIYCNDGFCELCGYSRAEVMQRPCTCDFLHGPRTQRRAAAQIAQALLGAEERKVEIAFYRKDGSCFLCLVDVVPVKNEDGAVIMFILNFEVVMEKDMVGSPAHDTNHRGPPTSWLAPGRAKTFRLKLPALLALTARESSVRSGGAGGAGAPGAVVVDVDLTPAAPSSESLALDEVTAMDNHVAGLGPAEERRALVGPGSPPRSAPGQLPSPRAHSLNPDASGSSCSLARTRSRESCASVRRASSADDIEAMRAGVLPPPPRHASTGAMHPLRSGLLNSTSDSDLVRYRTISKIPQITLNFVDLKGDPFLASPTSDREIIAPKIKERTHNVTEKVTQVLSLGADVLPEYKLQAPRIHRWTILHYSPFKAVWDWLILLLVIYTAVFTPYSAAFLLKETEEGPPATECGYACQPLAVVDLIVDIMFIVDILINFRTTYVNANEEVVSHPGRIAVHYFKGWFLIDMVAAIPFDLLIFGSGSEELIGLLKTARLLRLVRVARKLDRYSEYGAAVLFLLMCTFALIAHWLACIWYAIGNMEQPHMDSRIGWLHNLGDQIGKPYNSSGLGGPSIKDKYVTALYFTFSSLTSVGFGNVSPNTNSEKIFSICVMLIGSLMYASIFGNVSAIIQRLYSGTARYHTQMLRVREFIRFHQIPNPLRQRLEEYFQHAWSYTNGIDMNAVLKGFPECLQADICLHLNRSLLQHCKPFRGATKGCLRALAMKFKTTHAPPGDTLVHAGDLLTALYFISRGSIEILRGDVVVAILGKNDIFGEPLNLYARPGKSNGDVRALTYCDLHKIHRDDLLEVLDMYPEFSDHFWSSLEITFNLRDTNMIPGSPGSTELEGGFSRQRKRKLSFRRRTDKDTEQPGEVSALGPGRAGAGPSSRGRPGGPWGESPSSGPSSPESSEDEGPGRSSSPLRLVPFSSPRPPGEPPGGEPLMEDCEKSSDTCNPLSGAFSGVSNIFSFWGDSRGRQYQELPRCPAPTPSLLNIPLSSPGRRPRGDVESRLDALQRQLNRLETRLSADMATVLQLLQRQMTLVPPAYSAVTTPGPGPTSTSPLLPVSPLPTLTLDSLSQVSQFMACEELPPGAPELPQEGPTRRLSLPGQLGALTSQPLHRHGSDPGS
Sequence of Oxytocin receptor (P30559 whole entry): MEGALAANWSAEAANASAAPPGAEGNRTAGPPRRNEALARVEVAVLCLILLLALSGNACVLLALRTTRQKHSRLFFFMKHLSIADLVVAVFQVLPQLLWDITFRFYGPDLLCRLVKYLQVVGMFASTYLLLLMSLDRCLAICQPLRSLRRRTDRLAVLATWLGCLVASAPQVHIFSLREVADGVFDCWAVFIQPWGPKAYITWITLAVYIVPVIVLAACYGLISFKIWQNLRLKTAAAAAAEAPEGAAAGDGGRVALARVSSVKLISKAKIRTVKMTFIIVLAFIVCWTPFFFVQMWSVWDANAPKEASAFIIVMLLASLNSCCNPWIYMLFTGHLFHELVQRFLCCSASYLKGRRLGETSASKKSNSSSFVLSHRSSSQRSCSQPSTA
Sequence of Aryl hydrocarbon receptor (P35869 whole entry): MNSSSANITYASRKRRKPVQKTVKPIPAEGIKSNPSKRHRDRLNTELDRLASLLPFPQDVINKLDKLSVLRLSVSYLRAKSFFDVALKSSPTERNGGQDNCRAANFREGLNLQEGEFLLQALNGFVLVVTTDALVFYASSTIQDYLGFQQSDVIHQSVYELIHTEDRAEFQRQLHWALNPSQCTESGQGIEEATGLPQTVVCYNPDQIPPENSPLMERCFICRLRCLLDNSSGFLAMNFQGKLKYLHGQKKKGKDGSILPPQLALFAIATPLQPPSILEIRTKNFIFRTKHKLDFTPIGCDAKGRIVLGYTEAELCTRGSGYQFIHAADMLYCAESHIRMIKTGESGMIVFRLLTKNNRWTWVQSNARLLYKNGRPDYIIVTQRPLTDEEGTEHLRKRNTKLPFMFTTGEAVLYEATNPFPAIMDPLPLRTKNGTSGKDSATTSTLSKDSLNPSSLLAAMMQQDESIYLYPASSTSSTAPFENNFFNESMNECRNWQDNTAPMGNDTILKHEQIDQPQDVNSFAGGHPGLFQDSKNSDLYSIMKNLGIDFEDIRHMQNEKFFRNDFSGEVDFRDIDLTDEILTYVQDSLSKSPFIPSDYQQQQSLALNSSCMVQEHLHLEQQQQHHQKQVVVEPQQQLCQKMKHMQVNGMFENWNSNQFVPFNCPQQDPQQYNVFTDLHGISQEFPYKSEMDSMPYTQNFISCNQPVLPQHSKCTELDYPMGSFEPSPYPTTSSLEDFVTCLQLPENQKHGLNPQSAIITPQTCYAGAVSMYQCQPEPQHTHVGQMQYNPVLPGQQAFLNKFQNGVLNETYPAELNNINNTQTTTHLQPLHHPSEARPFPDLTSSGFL
Sequence of Mitochondrial peptide methionine sulfoxide reductase (P54149 whole entry): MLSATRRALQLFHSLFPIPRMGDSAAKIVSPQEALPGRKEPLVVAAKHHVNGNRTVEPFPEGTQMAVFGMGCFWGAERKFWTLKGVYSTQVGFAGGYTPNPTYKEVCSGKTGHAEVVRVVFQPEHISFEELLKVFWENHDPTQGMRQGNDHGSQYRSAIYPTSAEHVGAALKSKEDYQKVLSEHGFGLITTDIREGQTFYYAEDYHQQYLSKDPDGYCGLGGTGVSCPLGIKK
Sequence of Sphingosine 1-phosphate receptor 2 (O95136 whole entry): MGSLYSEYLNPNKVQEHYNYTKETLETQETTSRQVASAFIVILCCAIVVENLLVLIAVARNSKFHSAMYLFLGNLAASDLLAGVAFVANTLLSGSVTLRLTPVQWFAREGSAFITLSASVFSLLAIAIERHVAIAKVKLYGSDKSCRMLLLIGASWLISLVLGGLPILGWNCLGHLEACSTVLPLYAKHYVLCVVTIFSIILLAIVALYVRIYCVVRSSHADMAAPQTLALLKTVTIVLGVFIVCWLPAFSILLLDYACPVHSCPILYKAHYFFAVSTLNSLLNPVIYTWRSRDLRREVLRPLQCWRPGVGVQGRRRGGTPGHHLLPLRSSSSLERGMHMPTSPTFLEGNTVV
Sequence of Serine/threonine-protein phosphatase (Q9BPW0 whole entry): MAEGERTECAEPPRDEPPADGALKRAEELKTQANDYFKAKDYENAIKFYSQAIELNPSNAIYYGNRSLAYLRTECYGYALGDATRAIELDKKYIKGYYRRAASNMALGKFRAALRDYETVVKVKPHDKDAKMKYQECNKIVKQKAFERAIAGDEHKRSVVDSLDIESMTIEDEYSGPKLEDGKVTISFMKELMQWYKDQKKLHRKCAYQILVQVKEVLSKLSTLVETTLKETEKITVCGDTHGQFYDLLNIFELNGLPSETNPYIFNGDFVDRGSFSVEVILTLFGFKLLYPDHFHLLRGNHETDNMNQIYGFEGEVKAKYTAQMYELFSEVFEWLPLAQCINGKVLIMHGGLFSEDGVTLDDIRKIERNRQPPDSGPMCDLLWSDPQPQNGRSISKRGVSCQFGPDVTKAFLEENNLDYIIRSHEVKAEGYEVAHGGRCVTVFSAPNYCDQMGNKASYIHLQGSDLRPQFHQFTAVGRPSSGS
Sequence of Sphingosine 1-phosphate receptor 1 (P21453 whole entry): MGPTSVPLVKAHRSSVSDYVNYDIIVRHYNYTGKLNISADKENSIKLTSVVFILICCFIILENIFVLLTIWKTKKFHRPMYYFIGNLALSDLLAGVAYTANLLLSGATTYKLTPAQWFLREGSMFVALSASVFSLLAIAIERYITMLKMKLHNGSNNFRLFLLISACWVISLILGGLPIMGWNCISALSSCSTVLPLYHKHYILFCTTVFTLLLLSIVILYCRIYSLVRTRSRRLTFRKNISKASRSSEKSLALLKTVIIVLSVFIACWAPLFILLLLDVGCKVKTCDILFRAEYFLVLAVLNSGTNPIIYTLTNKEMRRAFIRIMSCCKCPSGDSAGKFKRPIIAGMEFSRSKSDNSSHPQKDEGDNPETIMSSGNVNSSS
Sequence of 5-hydroxytryptamine receptor 1E (P28566 whole entry): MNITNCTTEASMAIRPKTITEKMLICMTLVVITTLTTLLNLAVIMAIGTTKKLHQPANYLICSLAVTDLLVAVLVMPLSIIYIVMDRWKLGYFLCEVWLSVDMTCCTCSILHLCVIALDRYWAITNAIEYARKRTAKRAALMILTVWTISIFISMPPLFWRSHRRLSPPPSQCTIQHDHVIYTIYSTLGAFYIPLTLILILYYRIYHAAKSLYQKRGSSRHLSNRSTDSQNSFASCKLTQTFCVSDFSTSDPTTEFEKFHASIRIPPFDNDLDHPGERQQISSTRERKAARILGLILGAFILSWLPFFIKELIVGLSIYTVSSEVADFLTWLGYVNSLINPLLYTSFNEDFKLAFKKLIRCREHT

With `CC1(O)C(=O)C=C2C=C(c3ccc(C#N)cc3)OC=C2C1=O` (stereo unspecified), the IC50 (commonly the midpoint of a concentration-inhibition curve) against Genome polyprotein is recorded as > 49.8 µM (not active).
Turning to `COc1ccc(NC(=O)c2cccc3c(Br)cccc23)cc1`, the EC50 (as a rule, the concentration giving half of the maximal effect) in test [1] is 0.965 µM (active).
Regarding `Cc1cc(C)c(S(=O)(=O)/N=C2/C=C(Sc3nc[nH]n3)C(=O)c3ccccc32)cc1C`, in the test with INS1, the AC50 (usually the concentration giving half of the maximal activity seen) was 2.6 µM (active). Further, the results for the IC50 in [2], in [3] and in test [5] were 3.07 µM (active), 18.6 µM (not active) and 4.19 µM (active), respectively. The EC50 in [4] is > 104 µM (inactive).
Turning to `COc1ccc(NS(=O)(=O)Cc2ccc(N)cc2)cc1`, the half-maximal inhibitory concentration (IC50) on NADPH oxidase 1 is > 17 µM (not active).
Turning to `COc1ccc(CNc2ncnc3sccc23)cc1`, the AC50 with INS1 was 5.39 µM (active); in [6] it was 36 µM (active); in test [7], 1.66 µM (active); in [8] it was 8.63 µM (active). Further, the EC50 in [9] is > 120 µM (not active).
For `O=C(CSc1nnc(-c2ccco2)o1)N(C1CCCCC1)C1CCCCC1`, the EC50 is 0.278 µM (active) in test [10], 0.11 µM (active) in test [11] and > 10 µM (not active) in [12].
Regarding `C#CCOCCOCCOCCNc1nc(N2CCN(C(=O)CCCCCCCCCCNC(=O)[C@@H](CCC(=O)O)n3cc(CCCCCN)nn3)CC2)nc(N2CCN(C(=O)CCCCCCCCCCNC(=O)[C@H](CCCCN)n3cc(C[C@@H](C)CC)nn3)CC2)n1`, the IC50 is 27.2 µM (active) in test [13], 11.4 µM (active) in test [14], > 20 µM (inactive) at Bcl-2-related protein A1 and 4.52 µM (active) in test [15]. In addition, the EC50 was 8.37 µM (active) on Vasopressin V1a receptor and > 29.9 µM (not active) on Oxytocin receptor.
In the case of `FC(F)(F)c1cccc(NC(S)=NC(c2ccccc2)c2ccccc2)c1`, the IC50 in [16] was > 50 µM (not active); in [19], 3.29 µM (active). The EC50 was 9.61 µM (active) in test [17] and 2.22 µM (active) in [18]. Also, the AC50 in test [6] is 21.2 µM (active); in [7] it was 7.17 µM (active); in test [8] it was 26.2 µM (active).
Regarding `CC(C)COc1ccc(-c2nn(-c3ccccc3)cc2C(=O)Nc2nccs2)cc1`, the 50% effective concentration (EC50) in test [20] was 48.3 µM (active); in test [17], > 30 µM (not active); in test [18], 2.21 µM (active); in test [21], 1.04 µM (active); on Streptokinase A it was > 150 µM (not active); in the test with Streptococcus, > 150 µM (not active).
Regarding `CCOC(=O)C1CCN(C(=S)Nc2cc(C)ccc2C)CC1`, the 50% effective concentration (EC50) in [22] is on record as 4.34 µM (not active).
